Measurements from patent US20250195530A1, “POLQ INHIBITORS” (ASTRAZENECA AB, priority 2022, published 2025).
Read-outs that look alike come from different tables or passages of the source.

Assays:
DLD-1 BRCA2−/− cells = experiment: Homologous recombination synthetic lethal inhibition of proliferation, DLD-1 BRCA2-/- (Cell Titre Glo 3D); format: cell-based; conditions: Homo sapiens
Method in brief: (§1)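 DLD-1 BRCA2−/− (3,000 cells/mL) and parental DLD-1 (1,500 cells/mL) cells in phenol red-free RPMI 1640 with 10% FBS were exposed to a 10-point, three-fold compound series from 10 μM to 0.51 nM at 37 °C, 5% CO2. Medium and compound were replenished on day 6. CellTiter-Glo 3D luminescence was read on day 7 (DLD-1) or day 12 (BRCA2−/−), and IC50 was taken as 50% reduction of maximum signal.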

DLD-1 cells = experiment: Inhibition of proliferation, DLD-1 BRCA2 wt control (Cell Titre Glo 3D); format: cell-based; conditions: Homo sapiens
Method in brief: as §1

[1] = DLD-1, first proliferation column (c5), DLD-1 BRCA2-/-, read-out: POLQ PD Prolif Lumin (converted)
[2] = DLD-1, second proliferation column (c6), DLD-1 BRCA2 wt control, read-out: POLQ PD Prolif Lumin (converted)
[3] = DLD-1, DLD-1 BRCA2 −/−, mean, read-out: POLQ PD Prolif Lumin BRCA2 −/− mean pIC50 (converted)
[4] = DLD-1, DLD1 BRCA2 wt, mean, read-out: POLQ PD Prolif Lumin DLD1 mean pIC50 (converted)
[5] = DLD-1, 288 h, DLD-1 BRCA2−/− cells, 12 days, read-out: POLQ PD Prolif Lumin BRCA2 −/− mean pIC50 (converted)
[6] = DLD-1, 168 h, DLD-1 BRCA2 wt cells, 7 days, read-out: POLQ PD Prolif Lumin DLD1 mean pIC50 (converted)

Cc1cnc(Cn2c(-c3cccc(OCCN4CC(O)C4)c3Cl)nc3c(OC4(C)CC4)ncnc32)s1 [Example T142, 1-(2-(2-chloro-3-(6-(1-methylcyclopropoxy)-9-((5-methylthiazol-2-yl)methyl)-9H-purin-8-yl)phenoxy)ethyl)azetidin-3-ol] was tested, and the IC50 (DLD-1 BRCA2−/− cells; [1]) was 1 µM and the IC50 (DLD-1 cells; [2]) was over 10 µM.
In the case of Cc1ccnc(Cn2c(-c3ccc(CC(=O)N4C[C@H]5C[C@@H](C4)O5)cc3Cl)nc3c(OC4(C)CC4)ncnc32)c1 [Example T547, rel-1-((1R,5S)-6-oxa-3-azabicyclo[3.1.1]heptan-3-yl)-2-(3-chloro-4-(6-(1-methylcyclopropoxy)-9-((4-methylpyridin-2-yl)methyl)-9H-purin-8-yl)phenyl)ethan-1-one], the IC50 (DLD-1 BRCA2−/− cells; [1]) is reported as 0.501 µM and the IC50 (DLD-1 cells; [2]) is reported as over 10 µM.
Work on CC1(Oc2ncnc3c2nc(-c2ccc(OCCCN4CC(O)C4)cc2Cl)n3Cc2cc(Cl)ccn2)CC1 [Example T347, 1-(3-(3-chloro-4-(9-((4-chloropyridin-2-yl)methyl)-6-(1-methylcyclopropoxy)-9H-purin-8-yl)phenoxy)propyl)azetidin-3-ol] yielded an IC50 (DLD-1 BRCA2−/− cells; DLD-1, first proliferation column (c5), taken as DLD-1 BRCA2-/-, read-out: POLQ PD Prolif Lumin (converted)) of 0.158 µM and an IC50 (DLD-1 cells; DLD-1, second proliferation column (c6), taken as DLD-1 BRCA2 wt, read-out: POLQ PD Prolif Lumin (converted)) of over 7.94 µM.
For Cc1cnc(Cn2c(-c3ccc(O[C@H]4CCN(C)C4)cc3Cl)nc3c(OC4(C)CC4)ncnc32)s1 [Example T140, (S)-2-((8-(2-chloro-4-((1-methylpyrrolidin-3-yl)oxy)phenyl)-6-(1-methylcyclopropoxy)-9H-purin-9-yl)methyl)-5-methylthiazole], the IC50 (DLD-1 BRCA2−/− cells; [1]) was 0.251 µM and the IC50 (DLD-1 cells; [2]) was over 10 µM.
C[C@@H](CCOc1ccc(-c2nc3c(OC4(C)CC4)ncnc3n2Cc2cccc(Cl)c2)c(Cl)c1)C(=O)NCC(=O)O [Example U86, (S)-(4-(3-chloro-4-(9-(3-chlorobenzyl)-6-(1-methylcyclopropoxy)-9H-purin-8-yl)phenoxy)-2-methylbutanoyl)glycine] showed an IC50 (DLD-1 BRCA2−/− cells; [3]) of 2.51 µM and an IC50 (DLD-1 cells; [4]) of over 10 µM.
CC1(Oc2ncnc3c2nc(-c2cccc(OC4CCNCC4)c2Cl)n3Cc2ccccc2)CC1 [Example D11, 9-benzyl-8-(2-chloro-3-(piperidin-4-yloxy)phenyl)-6-(1-methylcyclopropoxy)-9H-purine] was tested, and the IC50 (DLD-1 BRCA2−/− cells; [5]) was 0.251 µM and the IC50 (DLD-1 cells; [6]) was 3.16 µM.
Molecule CC1(Oc2ncnc3c2nc(-c2ccc(OCCN4CCNCC4)cc2Cl)n3CCc2ccccc2)CC1 [Example J12, 8-(2-chloro-4-(2-(piperazin-1-yl)ethoxy)phenyl)-6-(1-methylcyclopropoxy)-9-phenethyl-9H-purine] has an IC50 (DLD-1 BRCA2−/− cells; [5]) of 0.501 µM and an IC50 (DLD-1 cells; [6]) of over 10 µM.
C[C@H](CCOc1ccc(-c2nc3c(OC4(C)CC4)ncnc3n2Cc2cc(Cl)ccc2F)c(Cl)c1)C(=O)O [Example U10, (R)-4-(3-chloro-4-(9-(5-chloro-2-fluorobenzyl)-6-(1-methylcyclopropoxy)-9H-purin-8-yl)phenoxy)-2-methylbutanoic acid] showed an IC50 (DLD-1 BRCA2−/− cells; [3]) of 0.0631 µM and an IC50 (DLD-1 cells; [4]) of over 10 µM.
Cc1ccnc(Cn2c(-c3ccc(OC4CN(C(N)=O)C4)cc3Cl)nc3c(OC4(C)CC4)ncnc32)c1 [Example T205, 3-(3-chloro-4-(6-(1-methylcyclopropoxy)-9-((4-methylpyridin-2-yl)methyl)-9H-purin-8-yl)phenoxy)azetidine-1-carboxamide] gave an IC50 (DLD-1 BRCA2−/− cells; DLD-1, DLD-1 BRCA2-/- proliferation, column head only partly shown, read-out: POLQ PD Prolif Lumin (converted)) of 0.398 µM and an IC50 (DLD-1 cells; DLD-1, DLD-1 BRCA2 wt control proliferation, column head only partly shown, read-out: POLQ PD Prolif Lumin (converted)) of over 10 µM.
For CC1(Oc2ccnc3c2nc(-c2ccc(OCCN4CCNCC4)cc2Cl)n3Cc2ccccc2)CCC1 [Example P4, 3-benzyl-2-(2-chloro-4-(2-(piperazin-1-yl)ethoxy)phenyl)-7-(1-methylcyclobutoxy)-3H-imidazo[4,5-b]pyridine], the IC50 (DLD-1 BRCA2−/− cells; [5]) was 0.316 µM and the IC50 (DLD-1 cells; [6]) was 1.26 µM.
CC1(Oc2ncnc3c2nc(-c2ccc(F)c(OCCC(=O)O)c2Cl)n3Cc2cccc(Cl)c2)CC1 [Example U65, 3-(2-chloro-3-(9-(3-chlorobenzyl)-6-(1-methylcyclopropoxy)-9H-purin-8-yl)-6-fluorophenoxy)propanoic acid] was tested, and the IC50 (DLD-1 BRCA2−/− cells; [3]) was 0.251 µM and the IC50 (DLD-1 cells; [4]) was over 10 µM.
CC1(Oc2ncnc3c2nc(-c2ccc(OCCN4C[C@@H]5C[C@H]4CN5)cc2Cl)n3Cc2ccccc2)CC1 [Example R19, 8-(4-(2-((1S,4S)-2,5-diazabicyclo[2.2.1]heptan-2-yl)ethoxy)-2-chlorophenyl)-9-benzyl-6-(1-methylcyclopropoxy)-9H-purine] was tested, and the IC50 (DLD-1 BRCA2−/− cells; [5]) was 0.2 µM and the IC50 (DLD-1 cells; [6]) was 3.98 µM.
